Values quoted from earlier work in PMC8216436, “Molecular docking and statistical optimization of taurocholate-stabilized galactose anchored bilosomes for the enhancement of sofosbuvir absorption and hepatic relative targeting efficiency” (Drug Delivery, 2020).

How the values were obtained:
P-glycoprotein (P-gp) = system: P-glycoprotein (P-gp); set-up: method as in Shen et al., 2019; conditions: efflux from GIT membrane cells and hepatocytes; ref Shen et al., 2019
[1] = 2017
[2] = oral, ref Rodríguez-Torres, 2013, Kirby et al., 2015, Cuenca-Lopez et al.

CC(C)OC(=O)[C@H](C)N[P@](=O)(OC[C@H]1O[C@@H](n2ccc(=O)[nH]c2=O)[C@](C)(F)[C@@H]1O)Oc1ccccc1 [Sofosbuvir]
P-glycoprotein (P-gp) substrate (P-glycoprotein (P-gp)): substrate | biopharmaceutics classification system class (high solubility and low permeability, ref Kirby et al., 2015): class III | partition coefficient (ref Amidon et al., 1995): about 1.6 | solubility (ref Amidon et al., 1995): ≥ 2 mg/mL | pKa (weak acid, ref Amidon et al., 1995): 9.6 | administered dose absorbed through the portal circulation [1, 2]: 36.4% | hepatic availability of the administered dose [1, 2]: 26.94% | hepatic extraction [1, 2]: 74% | volume of distribution ([1]; ref Bhatia et al., 2014, Reznik & Ashby): 127 L
